Assays:
cucumber downy mildew = assay: protectant activity in vivo against cucumber downy mildew; conditions: Cucumis sativus, 168 h, protectant activity; for pest or weed control at 25 µg/mL: read-out: control effect against cucumber downy mildew (%), 25 mg/L; for pest or weed control at 50 µg/mL: read-out: control effect against cucumber downy mildew (%), 50 mg/L; for pest or weed control at 100 µg/mL: read-out: control effect against cucumber downy mildew (%), 100 mg/L; for pest or weed control at 400 µg/mL: read-out: control effect against cucumber downy mildew (%), 400 mg/L
corn rust = assay: protectant activity in vivo against corn rust; conditions: Zea mays, 168 h, protectant activity; for pest or weed control at 400 µg/mL: read-out: control effect against corn rust (%), 400 mg/L; for pest or weed control at 6.25 µg/mL: read-out: control effect against corn rust (%), 6.25 mg/L; for pest or weed control at 25 µg/mL: read-out: control effect against corn rust (%), 25 mg/L; for pest or weed control at 100 µg/mL: read-out: control effect against corn rust (%), 100 mg/L
[1] = tested on: Green peach aphids (Myzus Persicae Sulzer); assay: bioactivity test against green peach aphid, airbrush foliar spray; type: in vivo; conditions: Myzus persicae, foliar, 48 h, contrastive test, read-out: Insecticidal activity against peach aphid (%); for pest or weed control at 10 µg/mL: 10 mg/L; for pest or weed control at 100 µg/mL: 100 mg/L; for pest or weed control at 600 µg/mL: 600 mg/L
In short: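 Aphids (15-30 per cabbage leaf disc) on moist filter paper were airbrush-sprayed at 10 psi, 0.5 mL, with compound from acetone:methanol (1:1) diluted in water with 0.1% tween 80. Held at 25±1 C, 60±5% RH; survivors counted after 48 hrs to give death rates.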

cucumber gray mold = assay: fungicidal activity in vitro (inhibition rate) against cucumber gray mold; type: cell-based; conditions: 25 ppm, in vitro; read-out: inhibition rate against cucumber gray mold
carmine spider mite = assay: bioactivity test against carmine spider mite, airbrush spray; type: in vivo; conditions: Tetranychus cinnabarinus, 72 h, contrastive test, read-out: Insecticidal activity against carmine spider mite (% ); for pest or weed control at 600 µg/mL: 600 mg/L; for pest or weed control at 10 µg/mL: 10 mg/L; for pest or weed control at 100 µg/mL: 100 mg/L
In short: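 Broadbean seedlings infested with adult mites were sprayed with compound (acetone/methanol stock diluted in 0.1% Tween 80 water) by airbrush at 0.7 kg/cm^2, 0.5 ml. Three replicates were run. Mortality was scored after 72 hrs.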

armyworm = assay: bioactivity test against armyworm, airbrush spray; type: in vivo; conditions: 72 h, read-out: Insecticidal activity against armyworm (%); for pest or weed control at 600 µg/mL: 600 mg/L
wheat powdery mildew = assay: protectant activity in vivo against wheat powdery mildew; conditions: Triticum aestivum, 168 h, protectant activity; for pest or weed control at 400 µg/mL: read-out: control effect against wheat powdery mildew (%), 400 mg/L; for pest or weed control at 6.25 µg/mL: read-out: control effect against wheat powdery mildew (%), 6.25 mg/L; for pest or weed control at 25 µg/mL: read-out: control effect against wheat powdery mildew (%), 25 mg/L; for pest or weed control at 100 µg/mL: read-out: control effect against wheat powdery mildew (%), 100 mg/L
Diamond back moth = assay: insecticidal activity against diamond back moth, airbrush spray; type: in vivo; conditions: 72 h; for pest or weed control at 600 µg/mL: 600 mg/L
In short: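 Airbrush leaf-disc spray test: both faces of 2 cm cabbage discs received 0.5 ml of test solution at 0.7 kg/cm^2. Solutions were made in acetone:methanol (1:1) and brought to concentration with 0.1% Tween 80 in water. Ten second-instar larvae per disc, triplicates, were held at 25° C and 60˜70% R.H., with mortality recorded at 72 hrs.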

rice blast = assay: microbe, parasite or virus in culture; type: cell-based; conditions: Pyricularia oryzae; for inhibition at 25 ppm: read-out: inhibition rate against rice blast, 25 ppm, in vitro

Row | Compound | pest or weed control at 25 µg/mL (cucumber downy mildew) | pest or weed control at 50 µg/mL (cucumber downy mildew) | pest or weed control at 100 µg/mL (cucumber downy mildew) | pest or weed control at 400 µg/mL (cucumber downy mildew) | pest or weed control at 400 µg/mL (corn rust) | pest or weed control at 10 µg/mL [1] | pest or weed control at 100 µg/mL [1] | pest or weed control at 600 µg/mL [1] | inhibition at 25 ppm (cucumber gray mold) | pest or weed control at 600 µg/mL (carmine spider mite) | pest or weed control at 600 µg/mL (armyworm) | pest or weed control at 400 µg/mL (wheat powdery mildew) | pest or weed control at 600 µg/mL (Diamond back moth) | inhibition at 25 ppm (rice blast) | pest or weed control at 6.25 µg/mL (corn rust) | pest or weed control at 25 µg/mL (corn rust) | pest or weed control at 100 µg/mL (corn rust) | pest or weed control at 10 µg/mL (carmine spider mite) | pest or weed control at 100 µg/mL (carmine spider mite) | pest or weed control at 6.25 µg/mL (wheat powdery mildew) | further results
1 | Cc1ncnc(NC(=O)Cc2ccc(Oc3ccc(C(F)(F)F)cc3)cc2)c1Cl [CK61, reference compound] | 30% | 85% | 90% | 100% | 0% | 0% | 0% | 88% | 0% | 0% | 0% | 70% | 0% | 0% |  |  |  |  |  |  | 
2 | CCC(Nc1ncnc(C)c1Cl)c1ccc(OC(F)F)cc1 (centres unmarked) [diflumetorim, reference compound] | 70% | 100% | 100% | 100% | 100% | 0% | 35% | 100% | 0% | 100% | 0% | 100% | 0% |  | 0% | 10% | 80% | 73% | 100% | 90% | pest or weed control at 6.25 µg/mL (cucumber downy mildew; read-out: control effect against cucumber downy mildew (%), 6.25 mg/L): 0%; pest or weed control at 12.5 µg/mL (cucumber downy mildew; read-out: control effect against cucumber downy mildew (%), 12.5 mg/L): 15%; pest or weed control at 25 µg/mL (wheat powdery mildew): 95%; pest or weed control at 100 µg/mL (wheat powdery mildew): 95%; inhibition at 8.3 ppm (rice blast; read-out: inhibition rate against rice blast, 8.3 ppm, in vitro): 0%
3 | CCc1ncnc(OCCc2ccc(Oc3ccccc3)cc2)c1Cl [CK13, reference compound] | 0% | 0% | 25% | 85% | 100% | 83% | 98% | 100% | 0% | 100% | 86% | 40% | 67% | 0% | 0% | 0% | 0% | 0% | 0% | 0% | pest or weed control at 5 µg/mL ([1]; 5 mg/L): 0%; pest or weed control at 10 µg/mL (armyworm; 10 mg/L): 0%; pest or weed control at 100 µg/mL (armyworm; 100 mg/L): 0%; pest or weed control at 25 µg/mL (wheat powdery mildew): 0%; pest or weed control at 100 µg/mL (wheat powdery mildew): 0%; pest or weed control at 10 µg/mL (Diamond back moth; 10 mg/L): 0%; pest or weed control at 100 µg/mL (Diamond back moth; 100 mg/L): 16%

From patent US9770026B2, “Substituted pyrimidine compound and uses thereof” (Shenyang Sinochem Agrochemicals R&D Co., Ltd., priority 2012, dated 2017)
